What was measured:
wheat = assay: Test A pre-/postemergence greenhouse test; assay type: in vivo, Triticum aestivum; conditions: for Plant response rating, Wheat: 0 to 100 scale where 0 is no effect and 100 is complete control; for Wheat plant response rating: 0 to 100 scale
In short: (§1)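 Two application timings were run side by side in the greenhouse. Before emergence, compound went onto the soil surface of loam–sand pots as a directed spray; after emergence, plants at 2–10 cm and the one- to two-leaf stage were treated. Visual injury versus controls was rated at approximately day ten.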

umbrella sedge = assay: Test C flooded paddy test; assay type: in vivo, Cyperus difformis; conditions: Flood
In short: (§2)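 Under a constant 3 cm flood, test compounds went directly into the paddy water. Following 13 to 15 days of greenhouse growth, treated species and controls were compared by eye.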

morningglory = assay: Test A pre-/postemergence greenhouse test; assay type: in vivo, Ipomoea spp.; conditions: for Plant response rating, Morningglory: 0 to 100 scale where 0 is no effect and 100 is complete control; for Morningglory plant response rating: 0 to 100 scale
In short: as §1

barnyardgrass [1] = assay: Test C flooded paddy test; assay type: in vivo, Echinochloa crus-galli; conditions: Flood
In short: as §2

barnyardgrass [2] = assay: Test A pre-/postemergence greenhouse test; assay type: in vivo, Echinochloa crus-galli; conditions: for Plant response rating, Barnyardgrass: 0 to 100 scale where 0 is no effect and 100 is complete control; for Barnyardgrass plant response rating: 0 to 100 scale
In short: as §1

duck salad = assay: Test C flooded paddy test; assay type: in vivo, Heteranthera limosa; conditions: Flood
In short: as §2

redroot pigweed = assay: Test A pre-/postemergence greenhouse test; assay type: in vivo, Amaranthus retroflexus; conditions: for Plant response rating, Pigweed: 0 to 100 scale where 0 is no effect and 100 is complete control; for Pigweed plant response rating: 0 to 100 scale
In short: as §1

corn = assay: Test A pre-/postemergence greenhouse test; assay type: in vivo, Zea mays; conditions: for Plant response rating, Corn: 0 to 100 scale where 0 is no effect and 100 is complete control; for Corn plant response rating: 0 to 100 scale
In short: as §1

crabgrass = assay: Test A pre-/postemergence greenhouse test; assay type: in vivo, Digitaria sanguinalis; conditions: for Plant response rating, Crabgrass, Large: 0 to 100 scale where 0 is no effect and 100 is complete control; for Crabgrass, Large plant response rating: 0 to 100 scale
In short: as §1

giant foxtail = assay: Test A pre-/postemergence greenhouse test; assay type: in vivo, Setaria faberi; conditions: for Plant response rating, Foxtail, Giant: 0 to 100 scale where 0 is no effect and 100 is complete control; for Foxtail, Giant plant response rating: 0 to 100 scale
In short: as §1

rice = assay: Test C flooded paddy test; assay type: in vivo, Oryza sativa; conditions: Flood
In short: as §2

velvetleaf = assay: Test A pre-/postemergence greenhouse test; assay type: in vivo, Abutilon theophrasti; conditions: for Plant response rating, Velvetleaf: 0 to 100 scale where 0 is no effect and 100 is complete control; for Velvetleaf plant response rating: 0 to 100 scale
In short: as §1

[3] = Postemergence, 500 g ai/ha, 0 is no effect, 100 is complete control
[4] = Preemergence, 125 g ai/ha, 0 no effect, 100 complete control
[5] = 250 g ai/ha, scale 0 to 100, 0 no effect, 100 complete control, 13 to 15 days
[6] = 62 g ai/ha, scale 0 to 100, 0 no effect, 100 complete control, 13 to 15 days
[7] = Preemergence, 500 g ai/ha, 0 no effect, 100 complete control
[8] = 31 g ai/ha, scale 0 to 100 (0 no effect, 100 complete control)
[9] = 62 g ai/ha, scale 0 to 100 (0 no effect, 100 complete control)
[10] = 125 g ai/ha, scale 0 to 100, 0 no effect, 100 complete control, 13 to 15 days

O=S(=O)(Cc1c(C(F)(F)F)nn(CC(F)(F)F)c1Cl)c1cccc[n+]1[O-] [Compound 44]
Plant response rating, Wheat (wheat; Postemergence, 125 g ai/ha): 0
Wheat plant response rating (wheat; [3]): 0
Wheat plant response rating (wheat; [4]): 0
Plant response rating, Wheat (wheat; Preemergence, 500 g ai/ha): 20
Plant response rating, Sedge, Umbrella (umbrella sedge; [5]): 50
Plant response rating, Morningglory (morningglory; Postemergence, 125 g ai/ha): 10
Morningglory plant response rating (morningglory; [3]): 40
Morningglory plant response rating (morningglory; [4]): 0
Plant response rating, Morningglory (morningglory; Preemergence, 500 g ai/ha): 60
Plant response rating, Barnyardgrass (barnyardgrass [1]; [6]): 0
Plant response rating, Barnyardgrass (barnyardgrass [1]; [5]): 0
Plant response rating, Barnyardgrass (barnyardgrass [2]; Postemergence, 125 g ai/ha): 70
Barnyardgrass plant response rating (barnyardgrass [2]; [3]): 80
Barnyardgrass plant response rating (barnyardgrass [2]; [4]): 70
Plant response rating, Barnyardgrass (barnyardgrass [2]; Preemergence, 500 g ai/ha): 90
Plant response rating, Ducksalad (duck salad; [6]): 0
Plant response rating, Ducksalad (duck salad; [5]): 40
Plant response rating, Pigweed (redroot pigweed; Postemergence, 125 g ai/ha): 0
Pigweed plant response rating (redroot pigweed; [3]): 10
Pigweed plant response rating (redroot pigweed; [4]): 0
Plant response rating, Pigweed (redroot pigweed; Preemergence, 500 g ai/ha): 100
Plant response rating, Corn (corn; Postemergence, 125 g ai/ha): 0
Corn plant response rating (corn; [3]): 0
Corn plant response rating (corn; [4]): 0
Plant response rating, Corn (corn; Preemergence, 500 g ai/ha): 0
Plant response rating, Crabgrass, Large (crabgrass; Postemergence, 125 g ai/ha): 70
Crabgrass, Large plant response rating (crabgrass; [3]): 80
Crabgrass, Large plant response rating (crabgrass; [4]): 60
Plant response rating, Crabgrass, Large (crabgrass; Preemergence, 500 g ai/ha): 100
Plant response rating, Foxtail, Giant (giant foxtail; Postemergence, 125 g ai/ha): 70
Foxtail, Giant plant response rating (giant foxtail; [3]): 80
Foxtail, Giant plant response rating (giant foxtail; [4]): 90
Plant response rating, Foxtail, Giant (giant foxtail; Preemergence, 500 g ai/ha): 100
Plant response rating, Rice (rice; [6]): 0
Plant response rating, Rice (rice; [5]): 30
Plant response rating, Velvetleaf (velvetleaf; Postemergence, 125 g ai/ha): 0
Velvetleaf plant response rating (velvetleaf; [3]): 30
Velvetleaf plant response rating (velvetleaf; [4]): 0
Plant response rating, Velvetleaf (velvetleaf; Preemergence, 500 g ai/ha): 30

O=S(=O)(Cc1c(C(F)(F)F)nn(CC(F)(F)F)c1Cl)c1ccc(Cl)c[n+]1[O-] [Compound 50]
Plant response rating, Wheat (wheat; Postemergence, 125 g ai/ha): 0
Wheat plant response rating (wheat; [3]): 0
Wheat plant response rating (wheat; [4]): 0
Plant response rating, Wheat (wheat; Preemergence, 500 g ai/ha): 0
Plant response rating, Sedge, Umbrella (umbrella sedge; [5]): 40
Plant response rating, Morningglory (morningglory; Postemergence, 125 g ai/ha): 30
Morningglory plant response rating (morningglory; [3]): 30
Morningglory plant response rating (morningglory; [4]): 30
Plant response rating, Morningglory (morningglory; Preemergence, 500 g ai/ha): 40
Plant response rating, Barnyardgrass (barnyardgrass [1]; [6]): 0
Plant response rating, Barnyardgrass (barnyardgrass [1]; [5]): 45
Plant response rating, Barnyardgrass (barnyardgrass [2]; Postemergence, 125 g ai/ha): 60
Barnyardgrass plant response rating (barnyardgrass [2]; [3]): 70
Barnyardgrass plant response rating (barnyardgrass [2]; [4]): 70
Plant response rating, Barnyardgrass (barnyardgrass [2]; Preemergence, 500 g ai/ha): 90
Plant response rating, Ducksalad (duck salad; [6]): 0
Plant response rating, Ducksalad (duck salad; [5]): 40
Plant response rating, Pigweed (redroot pigweed; Postemergence, 125 g ai/ha): 20
Pigweed plant response rating (redroot pigweed; [3]): 30
Pigweed plant response rating (redroot pigweed; [4]): 80
Plant response rating, Pigweed (redroot pigweed; Preemergence, 500 g ai/ha): 100
Plant response rating, Corn (corn; Postemergence, 125 g ai/ha): 0
Corn plant response rating (corn; [3]): 0
Corn plant response rating (corn; [4]): 0
Plant response rating, Corn (corn; Preemergence, 500 g ai/ha): 0
Plant response rating, Crabgrass, Large (crabgrass; Postemergence, 125 g ai/ha): 60
Crabgrass, Large plant response rating (crabgrass; [3]): 70
Crabgrass, Large plant response rating (crabgrass; [4]): 60
Plant response rating, Crabgrass, Large (crabgrass; Preemergence, 500 g ai/ha): 90
Plant response rating, Foxtail, Giant (giant foxtail; Postemergence, 125 g ai/ha): 70
Foxtail, Giant plant response rating (giant foxtail; [3]): 70
Foxtail, Giant plant response rating (giant foxtail; [4]): 80
Plant response rating, Foxtail, Giant (giant foxtail; Preemergence, 500 g ai/ha): 90
Plant response rating, Rice (rice; [6]): 0
Plant response rating, Rice (rice; [5]): 30
Plant response rating, Velvetleaf (velvetleaf; Postemergence, 125 g ai/ha): 0
Velvetleaf plant response rating (velvetleaf; [3]): 0
Velvetleaf plant response rating (velvetleaf; [4]): 0
Plant response rating, Velvetleaf (velvetleaf; Preemergence, 500 g ai/ha): 0

Cc1ccc[n+]([O-])c1S(=O)(=O)Cc1c(C(F)(F)F)nn(C)c1OC(F)F [Compound 113]
Plant response rating, Wheat (wheat; Postemergence, 125 g ai/ha): 40
Wheat plant response rating (wheat; [3]): 60
Wheat plant response rating (wheat; [4]): 0
Wheat plant response rating (wheat; [7]): 60
Plant response rating, Sedge, Umbrella (umbrella sedge; [8]): 0
Plant response rating, Sedge, Umbrella (umbrella sedge; [9]): 0
Plant response rating, Sedge, Umbrella (umbrella sedge; [10]): 0
Plant response rating, Sedge, Umbrella (umbrella sedge; [5]): 0
Plant response rating, Morningglory (morningglory; Postemergence, 125 g ai/ha): 30
Morningglory plant response rating (morningglory; [3]): 60
Morningglory plant response rating (morningglory; [7]): 80
Plant response rating, Barnyardgrass (barnyardgrass [1]; [8]): 0
Plant response rating, Barnyardgrass (barnyardgrass [1]; [9]): 0
Plant response rating, Barnyardgrass (barnyardgrass [1]; [10]): 0
Plant response rating, Barnyardgrass (barnyardgrass [1]; [5]): 0
Plant response rating, Barnyardgrass (barnyardgrass [2]; Postemergence, 125 g ai/ha): 70
Barnyardgrass plant response rating (barnyardgrass [2]; [3]): 80
Barnyardgrass plant response rating (barnyardgrass [2]; [4]): 70
Barnyardgrass plant response rating (barnyardgrass [2]; [7]): 100
Plant response rating, Ducksalad (duck salad; [8]): 0
Plant response rating, Ducksalad (duck salad; [9]): 0
Plant response rating, Ducksalad (duck salad; [10]): 0
Plant response rating, Ducksalad (duck salad; [5]): 0
Plant response rating, Pigweed (redroot pigweed; Postemergence, 125 g ai/ha): 10
Pigweed plant response rating (redroot pigweed; [3]): 50
Pigweed plant response rating (redroot pigweed; [4]): 10
Pigweed plant response rating (redroot pigweed; [7]): 100
Plant response rating, Corn (corn; Postemergence, 125 g ai/ha): 0
Corn plant response rating (corn; [3]): 60
Corn plant response rating (corn; [4]): 0
Corn plant response rating (corn; [7]): 80
Plant response rating, Crabgrass, Large (crabgrass; Postemergence, 125 g ai/ha): 60
Crabgrass, Large plant response rating (crabgrass; [3]): 80
Crabgrass, Large plant response rating (crabgrass; [4]): 80
Crabgrass, Large plant response rating (crabgrass; [7]): 90
Plant response rating, Foxtail, Giant (giant foxtail; Postemergence, 125 g ai/ha): 60
Foxtail, Giant plant response rating (giant foxtail; [3]): 80
Foxtail, Giant plant response rating (giant foxtail; [4]): 80
Foxtail, Giant plant response rating (giant foxtail; [7]): 90
Plant response rating, Rice (rice; [8]): 0
Plant response rating, Rice (rice; [9]): 0
Plant response rating, Rice (rice; [10]): 0
Plant response rating, Rice (rice; [5]): 0
Plant response rating, Velvetleaf (velvetleaf; Postemergence, 125 g ai/ha): 40
Velvetleaf plant response rating (velvetleaf; [3]): 50
Velvetleaf plant response rating (velvetleaf; [4]): 0
Velvetleaf plant response rating (velvetleaf; [7]): 40
